Patent EP0463456A1, “Phosphorus-containing HMG-CoA reductase inhibitors, new intermediates and their use” (E.R. SQUIBB & SONS, INC., priority 1990, dated 1992)

Test system: cholesterol biosynthesis in rats
Assay: In vivo effect on cholesterol biosynthesis in rats (14C-Acetate Model; plasma 14C-nonsaponifiable lipid)
Set-up: species or system Male Sprague/Dawley rats
Conditions: dose suppressing cholesterol synthesis in vivo by 50 percent
Method: SQ 34,346 in oral or IV dosage form was tested in vivo for its effect on cholesterol biosynthesis in rats (^14C-Acetate Model).
The following in vivo tests employed a rat model system to determine the in vivo cholesterol synthesis inhibitory activity of compounds which show cholesterol synthesis inhibition in whole cell systems (freshly isolated rat hepatocytes and cultured human skin fibroblasts), and which are potent inhibitors of HMG CoA reductase.
The method used for iv and po drug testing were adapted from a procedure originally described by Sandoz (U.S. Patent No. 4,613,610, Sept. 23, 1986, and Int'I Publication No. WO 86/00367, Derwent Nos. 86271640 and 8628274). […]
For iv testing, the salt forms of test compounds were routinely dissolved in saline and injected iv into the tail vein 5 minutes before ^14C-acetate injection. […] Cholesterol synthesis was measured by determining the level of ^14C-nonsaponifiable lipid present in one mL of plasma; the method used is a modification of the method described by Dugan, et al, (Dugan, R.E., L.L. Slakey, A.V. Briedis, and J. Porter, Arch. Biochem. Biophys., 152:21 (1972)). […] Samples were counted for both ^3H and ^14C in 10 mL Optiflour scintillation fluid using a Beckman LS3801 counter programed for double label counting. […]

(S)-4-[[[4-(4-Fluorophenyl)-1,2-bis(1-methylethyl)-5-phenyl-1H-pyrrol-3-yl]-ethynyl]hydroxyphosphinyl]-3-hydroxybutanoic acid, dilithium salt [SQ 34,346]
ED50 (i.v., injected into tail vein 5 minutes before 14C-acetate): 0.05 mg/kg
ED50 (p.o., given 30 minutes before 14C-acetate): 1.13 mg/kg
